Here are results for one molecule from article PMC11111895, “Identification of a dCache-type chemoreceptor in Campylobacter jejuni that specifically mediates chemotaxis towards methyl pyruvate” (Frontiers in Microbiology, 2024).

By Kd is commonly meant a measure of binding affinity in units of concentration.

One experiment deals with Tlp11-LBD N268A. The experiment in a line: MST of Tlp11-LBD mutant N268A. It counts as binding, C. jejuni ATCC 33560. The following applies: max ligand 2.5 mM. As for the experimental part:
(§1) The His-tag dye (MO-L018 RED-tris-NTA, NanoTemper, Germany) was adjusted to a final concentration of 25 nM and used to label the purified protein with a His-tag. The compound was diluted to a series of concentrations in phosphate-buffered saline ([Duan et al., 2023]) with 0.05% Tween 20 (PBS-T) buffer and mixed in a ratio of 1:1 with protein. The mixtures were loaded into capillaries (Monolith™ Series capillaries, NanoTemper) by means of capillary action. Thermophoresis was measured using a Monolith™ NT.115 (NanoTemper) instrument, with 40% excitation and 40% MST power configuration. The time-traces of changes in fluorescence, which reflected the thermophoretic movement of labeled protein affected by different concentrations of compound were recorded, and the dose–response curves were fitted with the ‘temperature jump and thermophoresis’ mode. Data analysis was performed using MO. Affinity Analysis version 2.3 (NanoTemper) and Prism version 8.0.2 (GraphPad Software, United States).
(§2) In order to confirm the contribution of L264, N268, I276, Y291, V318, and T320 to the binding to methyl pyruvate, we generated Tlp11-LBD proteins with an alanine point mutation at individual residues, to obtain the mutant proteins L264A, N268A, I276A, Y291A, V318A, and T320A, and then analyzed the binding affinities of methyl pyruvate to these mutants using MST. […]

The target in the next experiment is Tlp11-LBD I276A. The experiment in a line: MST of Tlp11-LBD mutant I276A. It is filed as binding, C. jejuni ATCC 33560. The following applies: max ligand 2.5 mM. As for the experimental part: as §1, §2
For another experiment, the target named is Tlp11-LBD Y291A. The experiment in a line: MST of Tlp11-LBD mutant Y291A. It counts as binding, C. jejuni ATCC 33560. The following applies: max ligand 2.5 mM. On the procedure: as §1, §2
The target in a further experiment is Tlp11-LBD V318A. Description: MST of Tlp11-LBD mutant V318A. It is filed as binding, C. jejuni ATCC 33560. The following applies: max ligand 2.5 mM. As for the experimental part:
as §1, §2

Experiment [1] deals with Tlp11-LBD homologue (WP_115552006.1, residues 31-329) (Helicobacter ganmani, UniProt A0A3D8IAJ9). The experiment in a line: MST of Tlp11-LBD homologue. It counts as binding. The settings on record: H. ganmani LBD. As for the experimental part: as §1
Tlp11-LBD homologue (WP_115552006.1, residues 31-329), sequence (A0A3D8IAJ9 entry or part of it): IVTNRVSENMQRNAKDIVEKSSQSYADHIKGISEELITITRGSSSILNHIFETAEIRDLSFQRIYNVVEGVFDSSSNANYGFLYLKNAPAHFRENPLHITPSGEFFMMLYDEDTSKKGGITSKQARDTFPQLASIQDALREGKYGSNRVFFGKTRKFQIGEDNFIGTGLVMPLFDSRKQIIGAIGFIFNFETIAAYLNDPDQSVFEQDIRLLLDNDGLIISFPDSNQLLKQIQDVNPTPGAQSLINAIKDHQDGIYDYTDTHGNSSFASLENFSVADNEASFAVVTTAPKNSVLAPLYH
(§3) To evaluate whether these potential Tlp11-LBD homologues could bind to methyl pyruvate, we conducted a structural analysis of the LBDs of six chemoreceptors from C. coli, H. equorum, H. himalayensis, H. mesocricetorum, H. ganmani, and C. upsaliensis using Alphafold 2. […]

Experiment [2] has as its target Tlp11-LBD homologue (WP_115570384.1, residues 34-332) (Helicobacter equorum, UniProt A0A3D8ITS8). Description: MST of Tlp11-LBD homologue. It counts as binding. On the procedure: as §1, §3
Experiment [3] has as its target Tlp11-LBD homologue (WP_257425542.1, residues 31-331). The experiment in a line: MST of Tlp11-LBD homologue. The settings on record: C. upsaliensis LBD. It is filed as binding, Campylobacter upsaliensis. As for the experimental part:
as §1, §3

A further experiment relates to C. jejuni ATCC 33560. Description: Growth curves in Minimal Essential Medium. It counts as cell-based, Campylobacter jejuni. The following applies: Minimal Essential Medium with fetal bovine serum, shaking; methyl pyruvate at concentrations above 1 mM. On the procedure: The C. jejuni ATCC 33560, C. jejuni WT NCTC 11168 and 11168ΩTlp11 cells were grown on a MH agar plate overnight, at 37°C, under microaerobic conditions. The colonies were suspended in PBS ([Duan et al., 2023]), pH 7.2, inoculated into Minimal Essential Medium broth (Life Technologies) containing 10% fetal bovine serum to an initial OD600 of 0.01, and grown at 37°C, 100 rpm, under microaerobic conditions. When required, Minimal Essential Medium was supplemented with different concentrations of methyl pyruvate or pyruvate (both from Macklin, China).

Structures are written as SMILES.

Tlp11-LBD homologue (WP_115570384.1, residues 34-332), sequence (A0A3D8ITS8 entry or part of it): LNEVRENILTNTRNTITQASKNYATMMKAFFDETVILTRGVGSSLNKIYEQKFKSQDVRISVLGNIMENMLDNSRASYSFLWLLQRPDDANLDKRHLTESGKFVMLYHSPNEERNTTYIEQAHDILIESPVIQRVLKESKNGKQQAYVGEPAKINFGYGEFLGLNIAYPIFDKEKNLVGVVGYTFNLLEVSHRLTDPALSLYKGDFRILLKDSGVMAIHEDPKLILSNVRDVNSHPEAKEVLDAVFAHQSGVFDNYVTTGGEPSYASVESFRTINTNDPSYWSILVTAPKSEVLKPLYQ

As for `COC(=O)C(C)=O` [methyl pyruvate, Methyl pyruvate], the “Kd (binding curve fit)” value on Tlp11-LBD N268A, at Tlp11-LBD I276A, at Tlp11-LBD Y291A and on Tlp11-LBD V318A was “unable to obtain fitted Kd values” throughout. In addition, the Kd in experiment [1] is 1600 ± 200 µM; in experiment [2], 340 ± 43 µM; in experiment [3], 1900 ± 500 µM. Also, in the experiment with C. jejuni ATCC 33560, the “effect on growth of C. jejuni ATCC 33560” value is reported as “significantly promoted the growth”.
